Experiments:
[1] = molecular target: T1, Full length DGKζ (in-house protein M1-V929) (Homo sapiens, UniProt Q13574); assay: Biochemical DGK IC50 assay (ADP-Glo, lipid micelle substrate), DGKζ; settings: 1 hour preincubation, 1 hour reaction, room temperature
T1 construct: His (N); TEV site (N); made in house; host or cells: Sf9 insect cells (Bac-to-Bac baculovirus)
Experimental: (§1) Enzymatic reactions of DGKζ, DGKα and DGKδ were performed using ADP-Glo assay with lipid micelle substrate. […] Full length DGKα (D21-10BG, SignalChem) and full length DGKδ (D23-10G, SignalChem) were purchased. Lipid micelle was prepared by dissolving DAG (Sigma, 317505-10 MG) and PS (Sigma, P7769-100 MG) with chloroform which was furtherly removed by rotary evaporation. The obtained residue was resuspended in buffer containing 25 mM HEPES pH 7.0, 0.5 mM EDTA and 160 mM Octyl β-D glucopyranoside by vigorous mixing and ultrasonic (IID, Scientz).
(§2) The inhibition activities testing for the compound disclosed herein were carried out at room temperature in assay buffer containing 50 mM HEPES, 10 mM MgCl2, 0.01% BSA, 0.1 mM Na3VO4, 0.005% Tween-20 and 0.01 mM CaCl2). Compounds in DMSO were dispensed into wells of a black 384 well plate (Corning 4514) using D300e digital dispenser (Tecan). […] 3 μL 2× enzyme solution was added to wells. […] After 1 hour reaction, 5 μL ADP-Glo reagent (Promga V9101) was added and incubated for 40 minutes. 10 μL Kinase Detection reagent was added and incubated for 30 minutes. Luminescence was measured on a microplate reader (PHERAstar FSX, BMG labtech). The IC50S are calculated based on inhibition of enzyme activity in the presence of increasing concentrations of compounds.
Human His-TEV-DGK-zeta-pFastBac1 and human baculovirus samples was generated using the Bac- to -Bac baculovirus expression system (Invitrogen) according to the manufacturer's protocol. The DNA used for expression of DGK-zeta, have SEQ ID Nos: 1. Baculovirus amplification was achieved using infected SF9 cells at 1:2000 virus/cells ratios, and grown for 96 hours at 27° C. post-transfected.
The expression scaled up for each protein was carried out in the […] from CORNING. 4 L of 3×10^6 cells/mL Sf9 cells (Expression System, Invitrogen) grown in SF900™ II SFM insect medium (Expression System) was infected with virus stock at 1:200 virus/cells ratio, and grown for 48 hours at 27° C. post-transfection. The infected cell culture was harvested by centrifugation at 6000 rpm for 15 min 4° C. in a SORVALL LYNX6000 centrifuge. The cell pellets were stored at −80° C.
Full length human DGKζ produced as described above, was purified from Sf9 baculovirus-infected insect cell paste. The cells were lysed using sonication method, and the lysates were clarified by centrifugation.

[2] = molecular target: T2, Full length DGKα (D21-10BG, SignalChem) (Homo sapiens, UniProt P23743); assay: Biochemical DGK IC50 assay (ADP-Glo, lipid micelle substrate), DGKα; settings: 1 hour preincubation, 1 hour reaction, room temperature
T2 construct: Full length DGKα (D21-10BG, SignalChem); purchased SignalChem D21-10BG
Experimental: as §1, §2

T2 sequence (P23743 whole entry): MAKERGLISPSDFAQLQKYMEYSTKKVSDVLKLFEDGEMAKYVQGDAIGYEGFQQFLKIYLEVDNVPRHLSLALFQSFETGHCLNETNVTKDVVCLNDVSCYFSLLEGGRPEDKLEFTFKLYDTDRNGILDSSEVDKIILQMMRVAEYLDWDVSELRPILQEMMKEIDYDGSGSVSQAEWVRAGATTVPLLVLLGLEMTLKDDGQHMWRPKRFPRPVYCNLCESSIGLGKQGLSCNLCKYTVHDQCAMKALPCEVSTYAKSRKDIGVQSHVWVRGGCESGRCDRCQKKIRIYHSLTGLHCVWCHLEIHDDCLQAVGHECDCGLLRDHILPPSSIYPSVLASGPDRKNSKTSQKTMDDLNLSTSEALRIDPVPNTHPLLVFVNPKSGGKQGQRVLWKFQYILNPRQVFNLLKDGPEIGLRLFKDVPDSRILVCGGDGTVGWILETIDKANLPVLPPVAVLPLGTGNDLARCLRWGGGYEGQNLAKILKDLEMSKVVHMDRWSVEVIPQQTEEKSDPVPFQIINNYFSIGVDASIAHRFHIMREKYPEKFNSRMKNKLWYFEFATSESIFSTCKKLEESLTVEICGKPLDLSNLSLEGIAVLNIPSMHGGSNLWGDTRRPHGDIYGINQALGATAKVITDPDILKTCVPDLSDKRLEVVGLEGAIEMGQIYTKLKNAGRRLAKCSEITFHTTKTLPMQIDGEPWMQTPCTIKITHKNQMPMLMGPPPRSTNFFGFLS
T1 sequence (Q13574 1-929 isoform Q13574-4): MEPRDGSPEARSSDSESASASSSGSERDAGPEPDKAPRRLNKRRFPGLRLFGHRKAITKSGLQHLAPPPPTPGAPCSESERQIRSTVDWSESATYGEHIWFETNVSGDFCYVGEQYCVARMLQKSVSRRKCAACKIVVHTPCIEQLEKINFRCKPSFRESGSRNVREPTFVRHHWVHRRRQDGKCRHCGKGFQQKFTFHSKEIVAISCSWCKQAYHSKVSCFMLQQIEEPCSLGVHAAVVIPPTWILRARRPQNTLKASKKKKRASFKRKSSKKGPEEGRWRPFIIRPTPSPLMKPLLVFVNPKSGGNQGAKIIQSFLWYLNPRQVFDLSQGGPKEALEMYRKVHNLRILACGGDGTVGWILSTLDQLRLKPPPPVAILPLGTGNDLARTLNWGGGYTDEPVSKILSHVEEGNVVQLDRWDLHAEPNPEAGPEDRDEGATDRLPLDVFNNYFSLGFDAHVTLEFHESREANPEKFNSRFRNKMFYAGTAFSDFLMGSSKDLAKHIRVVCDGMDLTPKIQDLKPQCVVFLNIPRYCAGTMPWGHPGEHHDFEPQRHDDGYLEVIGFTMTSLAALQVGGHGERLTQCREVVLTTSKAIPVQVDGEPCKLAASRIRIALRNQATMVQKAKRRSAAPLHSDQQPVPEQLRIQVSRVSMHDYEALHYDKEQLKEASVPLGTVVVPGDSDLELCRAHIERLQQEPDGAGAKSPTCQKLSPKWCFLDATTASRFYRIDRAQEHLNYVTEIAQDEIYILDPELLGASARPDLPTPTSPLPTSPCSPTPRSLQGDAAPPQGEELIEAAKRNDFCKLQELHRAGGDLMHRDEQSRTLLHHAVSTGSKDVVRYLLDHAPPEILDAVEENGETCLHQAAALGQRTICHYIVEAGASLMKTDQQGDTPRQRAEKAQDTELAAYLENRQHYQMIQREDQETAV

IC50 [1] [nM] | IC50 [2] [nM] | Structure (SMILES)
532 | > 150000 | CCn1c(CC#N)nc2c(N3C[C@@H](C)N(C(C)c4ccc5c(c4)OC(C)(C)CC5)C[C@@H]3C)nc(=O)n(C)c21 (single isomer, unassigned) [Compound A94b]
2.7 | 18800 | COC[C@H]1CN(C(C)c2ccc3c(c2)OC(C)(C)CO3)[C@H](C)CN1c1nc(=O)n(C)c2c1nc(CC#N)n2C (single isomer, unassigned) [Compound A12a]
4870 | > 150000 | CCn1c(CC#N)nc2c(N3C[C@@H](C)N(C(C)c4ccc5c(n4)OC(C)(C)CO5)C[C@@H]3C)nc(=O)n(C)c21 (single isomer, unassigned) [Compound A74b]
> 10000 | > 150000 | CCn1c(CC#N)nc2c(N3C[C@@H](C)N(C(C)c4ccc5c(c4)c(=O)c(C)cn5C)C[C@@H]3C)nc(=O)n(C)c21 (stereo partly drawn) [Compound A193, 2-(6-((2S,5R)-4-(1-(1,3-dimethyl-4-oxo-1,4-dihydroquinolin-6-yl)ethyl)-2,5-dimethylpiperazin-1-yl)-9-ethyl-3-methyl-2-oxo-3,4,5,9-tetrahydro-2H-purin-8-yl)acetonitrile]
138 | 5590 | Cc1ccc(C(C)N2C[C@H](C)N(c3nc(=O)n(C)c4c3nc(CC#N)n4C)C[C@H]2C)c(C(F)(F)F)c1 (single isomer, unassigned) [Compound A32b]
25 | 27400 | CC[C@@H]1CN(c2nc(=O)n(C)c3c2nc(CC#N)n3C)[C@@H](C)CN1C(C)c1ccc2c(n1)OC(C)(C)CO2 (single isomer, unassigned) [Compound A159a]
63 | 49600 | CCn1c(CC#N)nc2c(N3C[C@@H](C)N(C(C)c4ccc5sc(C(C)C)nc5c4)C[C@@H]3C)nc(=O)n(C)c21 (stereo partly drawn) [Compound A96, 2-(9-ethyl-6-((2S,5R)-4-(1-(2-isopropylbenzo[d]thiazol-5-yl)ethyl)-2,5-dimethylpiperazin-1-yl)-3-methyl-2-oxo-3,9-dihydro-2H-purin-8-yl)acetonitrile]
14 | 26100 | CC(c1ccc2c(c1)OC(C)(C)O2)N1C[C@H](C)N(c2nc(=O)n(C)c3c2nc(CC#N)n3CC(F)F)C[C@H]1C (stereo partly drawn) [Compound A166, 2-(9-(2,2-difluoroethyl)-6-((2S,5R)-4-(1-(2,2-dimethylbenzo[d][1,3]dioxol-5-yl)ethyl)-2,5-dimethylpiperazin-1-yl)-3-methyl-2-oxo-3,9-dihydro-2H-purin-8-yl)acetonitrile]
29 | 44600 | CC(c1ccc2nccnc2c1)N1C[C@H](C)N(c2nc(=O)n(C)c3c2nc(CC#N)n3C)C[C@H]1C (stereo partly drawn) [Compound A48, 2-(6-((2S,5R)-2,5-dimethyl-4-(1-(quinoxalin-6-yl)ethyl)piperazin-1-yl)-3,9-dimethyl-2-oxo-3,9-dihydro-2H-purin-8-yl)acetonitrile]
400 | > 150000 | Cc1cnc2ccc(C(C)N3C[C@H](C)N(c4nc(=O)n(C)c5c4nc(CC#N)n5C)C[C@H]3C)cc2n1 (single isomer, unassigned) [Compound A49b]
3 | > 150000 | CCn1c(CC#N)nc2c(N3C[C@@H](C)N(C(C)c4ccc5c(c4F)OC(C)(C)O5)C[C@@H]3C)c(F)c(=O)n(C)c21 (single isomer, unassigned) [Compound A190a]
749 | > 10000 | Cc1ccc(C(C)N2C[C@H](C)N(c3cc(=O)n(C)c4sc(CC#N)nc34)C[C@H]2C)c(C(F)(F)F)c1 (stereo partly drawn) [Compound A196, 2-(7-((2S,5R)-2,5-dimethyl-4-(1-(4-methyl-2-(trifluoromethyl)phenyl)ethyl)piperazin-1-yl)-4-methyl-5-oxo-4,5-dihydrothiazolo[5,4-b]pyridin-2-yl)acetonitrile]
123 | > 150000 | CCn1c(CC#N)nc2c(N3C[C@@H](C)N(C(C)c4ccc5ccn(C)c(=O)c5c4)C[C@@H]3C)nc(=O)n(C)c21 (stereo partly drawn) [Compound A92, 2-(6-((2S,5R)-2,5-dimethyl-4-(1-(2-methyl-1-oxo-1,2-dihydroisoquinolin-7-yl)ethyl)piperazin-1-yl)-9-ethyl-3-methyl-2-oxo-3,9-dihydro-2H-purin-8-yl)acetonitrile]
409 | 1580 | Cc1cccc(C(C)N2C[C@H](C)N(c3c(F)c(=O)n(C)c4c3nc(CC#N)n4C)C[C@H]2C)c1C(F)(F)F (single isomer, unassigned) [Compound A17b]
2.3 | 24200 | CC[C@@H]1CN(c2nc(=O)n(C)c3c2nc(CC#N)n3CC)[C@@H](C)CN1C(C)c1ccc2c(c1)OC(C)(C)CO2 (stereo partly drawn) [Compound A65, 2-(6-((2S,5R)-4-(1-(3,3-dimethyl-2,3-dihydrobenzo[b][1,4]dioxin-6-yl)ethyl)-5-ethyl-2-methylpiperazin-1-yl)-9-ethyl-3-methyl-2-oxo-3,9-dihydro-2H-purin-8-yl)acetonitrile]
639 | > 150000 | CCn1c(CC#N)nc2c(N3C[C@@H](C)N(C(C)c4cc5c(cc4Cl)OCC(C)(C)O5)C[C@@H]3C)nc(=O)n(C)c21 (stereo partly drawn) [Compound A73, 2-(6-((2S,5R)-4-(1-(7-chloro-3,3-dimethyl-2,3-dihydrobenzo[b][1,4]dioxin-6-yl)ethyl)-2,5-dimethylpiperazin-1-yl)-9-ethyl-3-methyl-2-oxo-3,9-dihydro-2H-purin-8-yl)acetonitrile]
19 | > 150000 | CCn1c(CC#N)nc2c(N3C[C@@H](C)N(C(C)c4ccc(C)c(C(F)(F)F)c4)C[C@@H]3C)nc(=O)n(C)c21 (stereo partly drawn) [Compound A115, 2-(6-((2S,5R)-2,5-dimethyl-4-(1-(4-methyl-3-(trifluoromethyl)phenyl)ethyl)piperazin-1-yl)-9-ethyl-3-methyl-2-oxo-3,9-dihydro-2H-purin-8-yl)acetonitrile]
806 | 121000 | CCn1c(CC#N)nc2c(N3C[C@@H](C)N(C(C)c4ccc(F)c5c4OC(C)(C)O5)C[C@@H]3C)nc(=O)n(C)c21 (single isomer, unassigned) [Compound A185a]
94 | 16200 | Cc1cnc2ccc(C(C)N3C[C@H](C)N(c4c(F)c(=O)n(C)c5c4nc(CC#N)n5C)C[C@H]3C)cc2n1 (single isomer, unassigned) [Compound A23b]
201 | 9520 | CCn1c(CC#N)nc2c(N3C[C@@H](C)N(C(C)c4ccc5c(c4)CN(CC(F)(F)F)C5=O)C[C@@H]3C)nc(=O)n(C)c21 (stereo partly drawn) [Compound A82, 2-(6-((2S,5R)-2,5-dimethyl-4-(1-(1-oxo-2-(2,2,2-trifluoroethyl)isoindolin-5-yl)ethyl)piperazin-1-yl)-9-ethyl-3-methyl-2-oxo-3,9-dihydro-2H-purin-8-yl)acetonitrile]
4 | > 150000 | CCn1c(CC#N)nc2c(N3C[C@@H](C)N(C(C)c4ccnc(C(C)(C)C)c4)C[C@@H]3C)nc(=O)n(C)c21 (stereo partly drawn) [Compound A129, 2-(6-((2S,5R)-4-(1-(2-(tert-butyl)pyridin-4-yl)ethyl)-2,5-dimethylpiperazin-1-yl)-9-ethyl-3-methyl-2-oxo-3,9-dihydro-2H-purin-8-yl)acetonitrile]

— patent publication US20260125378A2, “Heterocyclic Compounds” (BeOne Medicines I GmbH, priority 2023, published 2026)
